Data as given in patent US20070105878A1, “Purine formulations and methods for managing disorders” (priority 2005, published 2007).

Legend:
Assay type in all cases: in vivo, mouse
mice = assay: acetylcholine writhing assay
Experimental: Experiments were conducted to collect data in an animal model that reflects the gastrointestinal pain component of IBS. In this model, mice were injected intraperitoneally with acetylcholine. Acetylcholine evokes contractions of smooth muscle in the gastrointestinal tract. These contractions are painful and are expressed as a writhing response. Two measurements are made in this model: 1) time to onset of writhing and 2) total writhing time. In these studies, mice were treated with Compound 112 prior to acetylcholine administration and time to onset and total time writhing were measured.
Compound 112 was tested for its ability to attenuate acetylcholine induce writhing. The anti-writhing response was compared to propentofylline, pentoxyfylline and theophylline. All drugs were administered subcutaneously 30 minutes prior to acetylcholine administration. Acetylcholine was administered at a dose of 3 mg/kg (IP). Acetylcholine writhing was measured for a 10 minute time period. Time to onset and total writhing time were recorded.
Compound 112 was administered via both routes 30 minutes prior to acetylcholine administration. Acetylcholine was administered at a dose of 3 mg/kg (IP). Acetylcholine writhing was measured for a 10 minute time period. Time to onset and total writhing time were recorded.

Male CD1 mice [1] = assay: colonic propulsion assay (glass bead expulsion test); conditions: for increase of expulsion time from controls: subcutaneous, 30 minutes prior to glass bead expulsion test
Description: The gastrointestinal transit model described in this report is a method for evaluating a test compounds ability to alter colonic propulsive motility. This model is designed to identify pharmacological agents that produce inhibitory effects on propulsive motor activity and is an excellent predictor of drugs that may be useful for the therapy of irritable bowel syndrome. This model can be modified to identify antagonists of constipative drugs or diarrhea producing drugs. In this study, Compound 112 was tested for its ability to affect colonic transport.
Male CD1 mice (Harlan) 12 weeks of age were used for this study. Mice were kept on a 12 hr light dark cycle and fed ad libitum.
Compound 112 was administered 30 minutes prior to the colonic propulsion study. After dosing, a 3 mm glass bead was inserted through the anus to a depth of 2 cm into the distal colon using a pre-measured plastic rod. […] A cutoff of 30 minutes was used. Data are expressed as the average ±SEM for each treatment. Data were averaged and analyzed by ANOVA followed by a post-hoc Tukey's test with a p value of less then […] indicating a statistical difference.
Compound 112 was compared to morphine, topfisopam, propentofylline, pentoxyfylline, and theophylline in the colonic propulsion assay. Drugs were administered subcutaneously at the indicated doses 30 minutes prior to the colonic propulsion assay.

CD1: ICR mice [2] = assay: tail suspension test in mice
Description: There are a number of animal models of depression that are used to identify pharmacological agents that have clinical potential as anti-depressant agents. One such animal model is the mouse tail-suspension model. Mice, suspended by the tail, will rapidly develop behavioral despair that is characterized by immobility. This immobility is thought to reflect a state of lowered ‘mood’ (i.e., depression) in which animals have given up hope of escaping.
(§1) In both assays, antidepressants increase the amount of struggle and the latency until the first extended immobility. These assays are considered to be good predictors for antidepressant activity and identifies nearly all antidepressant classes including tricyclics, SSRIs, 5-HT1A receptor agonists, and MAOIs.
(§2) CD1: ICR mice from Harlan 12 weeks of age. Animals were dosed with Compound 112, 30 minutes prior to tail suspension analysis or forced swim test.
For the tail suspension test, a clip was attached to each mouse tail. Mice (2 per run) were suspended from the pressure transducer in an isolated plexiglass tail suspension chamber. Thirty seconds after suspending the mouse from the transducer, struggle activity was monitored via the transducer that was connected to a computer. The following parameters were measured: 1) number of despair events lasting 5 seconds or longer; 2) Total time in despair; and average time in despair. Data were averaged and analyzed by ANOVA followed by a post-hoc Tukey's test with a p value of less then […] indicating a statistical difference.

CD1: ICR mice [3] = assay: forced swim test in mice
Experimental: FIG. 2 illustrates forced swim test in mice. Mice are administered illustrative compounds of the invention and subjected to the forced swim test for 6 minutes with activity timed for the duration of the test. Compound 112 was administered 30 minutes prior to the swim test.
The forced swim test is another commonly used animal model for detecting anti-depressant activity of pharmacological agents. This test is complimentary to the tail suspension test. When mice are required to swim in a container with no route of escape they develop a behavioral despair that is characterized by immobility except for small movements needed to remain afloat. This immobility is thought to reflect a state of lowered ‘mood’ (i.e., depression) in which animals have given up hope of escaping. Forced swim test immobility is attenuated by a variety of clinically active antidepressants.
as §1, §2

Male C57/B16 mice = assay: experimental autoimmune encephalomyelitis (EAE), animal model of multiple sclerosis, open-field analysis; conditions: daily administration at 6 and 30 mg/kg
Description: Experimental autoimmune encephalomyelitis (EAE) is an animal model of multiple sclerosis. This model is produced by administering a myelin basic protein peptide (MBP) fragment that induces an autoimmune response directed to the myelin sheath surrounding motor neurons. Demyelination of neurons within the CNS leads to impaired locomotor function and mirrors symptoms of the human disease. The disease, and the model, appears in exacerbations and remissions and is characterized by loss of nerve conduction and chronic progression of disability. In this study, we assessed the progression of locomotor dysfunction in mice subjected to EAE and treated with an illustrative compound of the invention.
Male C57/B16 mice (Harlan Sprague Dawley, Indianapolis, Ind.) 8 weeks of age were used for these studies. […]
Open-field assessments were conducted on days 7, 14, 21 and 28. Mice were evaluated by activity in an open-field activity monitor (Med-Associates-OFA ENV-510). Mice were place in the activity monitor for 15 minutes and a variety of open-field behaviors were monitored including distance traveled, ambulatory time, rearing behavior, time in center of field and stereotypic behavior. Data were averaged and analyzed by ANOVA followed by a post-hoc Tukey's test with a p value of less then […] indicating a statistical difference.

Male CD1 mice [4] = assay: micturition model of overactive bladder; conditions: 1 hr period after furesomide
Description: Micturition is a model of overactive bladder and is achieved through complex neurological mechanisms involving somatic, autonomic and central components. Disorders of micturition can roughly be classified as disturbances of bladder storage or of emptying. Failure to store urine may lead to various forms of incontinence, the main forms of which are urge and stress incontinence. Antimuscarinics are the mainstay of pharmacological treatment of the overactive bladder syndrome, which is characterized by urgency, frequency, and urge incontinence. The present study describes the activity of Compound 112 in an animal model of incontinence.
Male CD1 mice (Harlan Sprague Dawley, Indianapolis, Ind.) 12 weeks of age were used for these studies. This study was multiplexed with the pulmonary inflammation study. Animals were housed five per cage, kept on a standard 12 hr light cycle. Sample size was 6 animals per group.
Mice were injected with Compound 112 or vehicle solution as described, and then injected with 1 ml of water (s.c). Furesomide (SigmaAldrich) was formulated at a concentration of 1 mg/ml in water and injected ip at a volume of 10 ml/kg within 5 minutes after drug and water administration. […] Data were averaged and analyzed by ANOVA followed by a post-hoc Tukey's test with a p value of […] indicating a statistical difference.

[5] = subcutaneous, 30 minutes prior to acetylcholine 3 mg/kg IP

SMILES: Cn1c(=O)c2[nH]cnc2n(C)c1=O [theophylline, reference compound]
- activity on acetylcholine induced writhing (mice; [5]): had activity

SMILES: CC(=O)CCCCn1c(=O)c2c(ncn2C)n(C)c1=O [pentoxyfylline, reference compound]
- activity on acetylcholine induced writhing (mice; [5]): had activity

SMILES: CCC1C(C)=NN=C(c2ccc(OC)c(OC)c2)c2cc(OC)c(OC)cc21 (centres unmarked) [tofisopam, reference compound]
- increase of expulsion time from controls (Male CD1 mice [1]): less than 3 fold

SMILES: CCCn1cnc2c1c(=O)n(CCCCC(C)=O)c(=O)n2C [propentofylline, reference compound]
- activity on acetylcholine induced writhing (mice; [5]): had activity

SMILES: CCOCn1cnc2c1c(=O)n(CCCCC(C)(C)O)c(=O)n2C [Compound 112]
- number of despair events (CD1: ICR mice [2]; 6 mg/kg, dosed 30 minutes before test): reduced
- despair time (CD1: ICR mice [2]; 6 and 30 mg/kg, dosed 30 minutes before test): significantly decreased
- anti-depressant activity (CD1: ICR mice [2]; higher doses (≧30 mg/kg)): lost
- antidepressant activity (CD1: ICR mice [2]; lower doses (6 and 10 mg/kg)): observed
- anti-depressant activity (CD1: ICR mice [3]; higher doses (≧30 mg/kg)): lost
- antidepressant activity (CD1: ICR mice [3]; lower doses (6 and 10 mg/kg)): observed
- development of locomotor dysfunction (Male C57/B16 mice): significantly attenuated
- expulsion of a colonically inserted glass bead (Male CD1 mice [1]; 30 and 100 mg/kg, 30 minutes after administration): significantly slowed
- extension of expulsion time (Male CD1 mice [1]; 30 and 100 mg/kg, vs vehicle): > 5 fold
- increase of expulsion time from controls (Male CD1 mice [1]): 5 fold
- number of urination events (Male CD1 mice [4]): significantly reduced
- urinary volume (Male CD1 mice [4]): significantly reduced
- potency, oral vs subcutaneous administration (mice; 30 minutes prior to acetylcholine 3 mg/kg IP): significantly more potent
- activity on onset time (mice; SC, 30 mg/kg): produced activity
- activity on onset time (mice; oral, 10 mg/kg): significant activity
- activity on acetylcholine induced writhing (mice; [5]): had activity
- overall potency vs theophylline, pentoxyfylline and propentofylline (mice; [5]): more potent
- potency in attenuating writhing time vs propentofylline, pentoxyfylline and theophylline (mice; [5]): significantly more potent
- potency in delaying onset of writhing vs propentofylline, pentoxyfylline and theophylline (mice; [5]): significantly more potent
